Measured values: US20030082610A1, “Use of a gene change in gene GNB3 coding for the B3 subunit of human G proteins” (SniP Biotech GmbH & Co. KG, priority 2001, published 2003)

Test: placebo-controlled clinical study on the gene-dependent (GNB3 C825T) effectiveness of Sibutramine for weight reduction
Assay type: in vivo, human
Experimental: A placebo-controlled clinical study on the gene-dependent effectiveness of Sibutramine was carried out. This study included 105 patients with a body-mass index between 30 and 40 kg/m^2. All patients received a reduced calorie diet of maximum 1500-2000 kcal per day. Moreover the patients were urged to increase their physical activity and for example to walk at least 30 minutes a day at an increased pace. Forty nine patients received 15 mg Sibutramine daily to support weight reduction, while 56 patients received a placebo. The therapy was continued for 54 weeks. The body weight and body size of all patients were known at the beginning of the study and after 54 weeks of therapy. The end points of the study were the weight loss after 54 weeks, the number of patients with at least 5% reduction in body weight, and the number of patients with at least 10% reduction of body weight.
From all patients, DNA was isolated from a blood sample in order to analyze the C825T allele status in gene GNB3. Genotyping was done by means of PCR reaction and restriction analysis in processes familiar to one skilled in the area. The study results are shown in the graph of FIG. 1. In the placebo group, the average weight reduction was 5.3±7.3 kg, while the weight loss in the group treated with Sibutramine was 10.0±8.7 kg. This difference was statistically significant (p=0.036). FIG. 1 illustrates the genotype-dependent weight loss. In the placebo group, the average weight reduction was 9.1±2.8 kg for the TT genotype, 7.4±1.5 kg for the TC genotype, but only 2.8±1.1 kg for the CC genotype. This difference was statistically significant (One-way ANOVA, P=0.03).

Which results are given for `CC(C)CC(N(C)C)C1(c2ccc(Cl)cc2)CCC1` (stereo not shown) [Sibutramine]?
odds ratio (OR) for a 5% weight loss, Sibutramine compared to placebo (825T allele carriers, 54 weeks, p=0.26, not significant): 1.8; odds ratio (OR) for a 10% weight loss, Sibutramine compared to placebo (825T allele carriers, 54 weeks, p=0.4): 1.6; weight loss (CC genotype (825C allele carrier), 15 mg Sibutramine daily, 54 weeks): 9.9 kg; odds ratio (OR) for a 5% weight reduction, long-term, Sibutramine versus placebo (CC genotype, re-examined 2 years after the end of the study, p=0.0358): 4.4; further weight loss compared to placebo (TT/TC genotype (825T allele carriers), 15 mg Sibutramine daily, 54 weeks): no further weight loss compared to the placebo; weight loss (average weight reduction) (all genotypes, patients BMI 30-40 kg/m^2, 15 mg Sibutramine daily plus reduced calorie diet and physical activity, after 54 weeks): 10.0 ± 8.7 kg; effect of Sibutramine compared to placebo on weight loss (carriers of the 3882A allele and the 5249G allele): same favorable results as for the 825C allele carrier; odds ratio (OR) for a 5% weight reduction, long-term, Sibutramine versus placebo (genotype not printed (contrasted with CC), 2 years after the end of the study, p 0.2139, not significant): 2.333; odds ratio (OR) for losing more than 5% body weight, Sibutramine compared to placebo (homozygotic 825C allele carriers (CC genotype), 54 weeks, p 0.0002): 12.0; odds ratio (OR) for the 10% weight reduction, Sibutramine compared to placebo (homozygotic 825C allele carriers (CC genotype), 54 weeks, p 0.0028): 9.69
